Like-named read-outs stand apart in the source and are kept apart here.

The values below come from paper PMC12610539, “Determination of Gnetol in Murine Biological Matrices by Liquid Chromatography–Tandem Mass Spectrometry (LC–MS/MS): Application in a Biodistribution Study” (International Journal of Molecular Sciences, 2025).

Data set [1] can be described thus: Stability of stock solutions (1 mg/mL in DMSO). Format: physicochemical. The protocol: (§1) Stock solutions of gnetol and resveratrol-^13C6 (IS) were prepared in DMSO at 1 mg/mL, stored at −20 °C, and protected from light. Calibration standards and QC samples were generated by serially diluting the gnetol stock into pooled blank murine plasma or hepatic homogenate. Stability was assessed under a range of storage and handling conditions. Stock solutions of gnetol and the IS were evaluated after storage on ice (0–4 °C) and at −20 °C. Plasma stability of gnetol was examined under short-term conditions (on ice for 6 h), long-term storage (−80 °C for 7 days), three freeze–thaw cycles, and post-preparative holding (autosampler at 4 °C for 24 h). Because stability is difficult to determine directly in intact tissues, only short-term stability in liver homogenate (on ice for 6 h) was assessed; for processed tissue extracts, post-preparative stability was likewise evaluated using liver homogenate as a representative matrix. Stability was considered acceptable when 85–115% of the initial gnetol concentration remained.

A further data set can be described thus: in vitro. Format: in vitro ADME. Conditions: mouse. As for the experimental part:
as §1, with “Stability” for “Stock solutions of gnetol and resveratrol-^13C6 (IS) were prepared in DMSO at 1 mg/mL, stored at −20 °C, and protected from light. Calibration standards and QC samples were generated by serially diluting the gnetol stock into pooled blank murine plasma or hepatic homogenate. Stability”

The next data set deals with tyrosinase. The conditions noted are these: cited from earlier work.
The test system of the next data set is SARS-CoV-2 main protease. On the set-up: method as in PMID 39653224. Conditions: cited from earlier work.

For `Oc1cc(O)cc(/C=C/c2c(O)cccc2O)c1` [Gnetol, trans-2,3′,5′,6-tetrahydroxystilbene], in data set [1], the amount remaining at 24 h, 1 mg/mL is 101 ± 5.3% and the share remaining at 168 h, 1 mg/mL was 98.2 ± 3.9%. Besides, in “in vitro” (plasma), the amount remaining at 15 ng/mL came out at 103 ± 11.6%; the amount remaining at 1200 ng/mL is 112 ± 2.2%; the share remaining at 6 h, 15 ng/mL came to 100 ± 7.3%; the amount remaining at 6 h, 1200 ng/mL stood at 106 ± 1.8%. In addition, in the data set “in vitro” (plasma), the fraction remaining at 24 h, 15 ng/mL worked out at 94 ± 7.7%; the fraction remaining at 24 h, 1200 ng/mL came to 103 ± 7.6%; the fraction remaining at 168 h, 15 ng/mL was 97.2 ± 6.3%; the fraction remaining at 168 h, 1200 ng/mL amounted to 112 ± 2.5%. In addition, in the data set “in vitro” (tissue homogenate), the amount remaining at 6 h, 15 ng/mL came to 96.1 ± 11.3%; the fraction remaining at 6 h, 1200 ng/mL came to 110 ± 4.4%; the fraction remaining at 24 h, 15 ng/mL came out at 104 ± 4.5%; the share remaining at 24 h, 1200 ng/mL was determined as 88.9 ± 6.4%. In addition, the Tyrosinase inhibition entry in the data set on tyrosinase is “potent tyrosinase inhibitor”. Further, the “Inhibition of SARS-CoV-2 main protease” value in the data set with SARS-CoV-2 main protease is recorded as “inhibits the SARS-CoV-2 main protease”.

For the compound `Oc1cc(O)cc(/C=C/[13c]2[13cH][13cH][13c](O)[13cH][13cH]2)c1` [Resveratrol-^13C6, trans-3,5,4′-trihydroxystilbene-^13C6, reference compound], in data set [1] (stock solution in DMSO, stock solution 1.00 mg/mL, stored at ice-cold temperature for 24 h, n = 6, read-out: Remaining (%, Mean ± SD)), the share remaining at 24 h, 1 mg/mL was 98.2 ± 3.9%. In addition, the fraction remaining at 168 h, 1 mg/mL in data set [1] (stock solution in DMSO, stock solution 1.00 mg/mL, stored at −20 °C for 7 days, n = 6, read-out: Remaining (%, Mean ± SD)) turned out to be 100 ± 3.6%.
